Test results published in patent US9260439B2, “Dihydropyrrolopyrimidine derivatives” (PFIZER INC., priority 2014, dated 2016).

Target: truncated PI3Kα (p110α/iSH2 p85α) (Homo sapiens (Human), UniProt P42336)
Test: PI3KA_Act fluorescence polarization kinase assay (Ki)
Format: biochemical
Conditions: 1 mM ATP
Outline: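 p110α/iSH2 p85α (0.5 nM) was reacted with 30 μM sonicated PIP2 in 50 mM HEPES pH 7.4, 150 mM NaCl, 5 mM MgCl2, 1 mM DTT and 0.05% CHAPS for 30 min at room temperature, then stopped with EDTA. PIP3 was detected by fluorescence polarization (GST-Grp1 PH domain/TAMRA-PIP3), and Ki came from a Morrison tight-binding fit.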

Sequence of truncated PI3Kα (p110α/iSH2 p85α) (P42336 whole entry, the tested form may be a part): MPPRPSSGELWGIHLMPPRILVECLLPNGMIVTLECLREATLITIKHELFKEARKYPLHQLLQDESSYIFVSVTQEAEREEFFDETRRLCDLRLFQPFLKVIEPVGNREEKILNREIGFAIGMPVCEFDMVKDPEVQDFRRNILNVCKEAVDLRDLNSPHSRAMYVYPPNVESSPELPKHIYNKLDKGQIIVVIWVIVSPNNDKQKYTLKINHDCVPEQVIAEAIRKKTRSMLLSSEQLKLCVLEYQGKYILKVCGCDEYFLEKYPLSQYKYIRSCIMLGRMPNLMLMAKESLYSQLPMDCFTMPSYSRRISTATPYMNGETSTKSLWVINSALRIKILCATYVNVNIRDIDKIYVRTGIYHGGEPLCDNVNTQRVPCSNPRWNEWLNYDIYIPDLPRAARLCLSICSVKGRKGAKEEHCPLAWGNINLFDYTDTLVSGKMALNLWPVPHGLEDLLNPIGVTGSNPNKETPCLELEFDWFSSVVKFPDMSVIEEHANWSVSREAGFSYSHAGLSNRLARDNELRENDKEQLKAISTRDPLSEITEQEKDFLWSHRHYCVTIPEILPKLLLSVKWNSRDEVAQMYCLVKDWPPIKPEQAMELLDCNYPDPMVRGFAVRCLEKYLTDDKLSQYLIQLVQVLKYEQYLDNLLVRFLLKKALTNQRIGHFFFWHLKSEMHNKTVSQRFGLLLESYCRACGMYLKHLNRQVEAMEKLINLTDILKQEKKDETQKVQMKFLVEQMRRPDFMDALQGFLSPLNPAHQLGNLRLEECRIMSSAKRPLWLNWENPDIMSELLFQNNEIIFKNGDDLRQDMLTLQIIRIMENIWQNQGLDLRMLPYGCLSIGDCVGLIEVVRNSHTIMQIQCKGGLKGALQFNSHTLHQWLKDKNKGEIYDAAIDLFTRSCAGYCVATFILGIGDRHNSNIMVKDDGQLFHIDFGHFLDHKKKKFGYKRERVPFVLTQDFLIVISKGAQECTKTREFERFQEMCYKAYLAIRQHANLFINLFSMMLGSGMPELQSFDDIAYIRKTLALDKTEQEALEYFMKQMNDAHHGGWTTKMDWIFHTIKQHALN

SMILES	PI3KA_Act Ki [nM]	Ki [nM]
C[C@@H](O)C(=O)N1CC[C@@](C)(N2CCc3c(-c4cnc(N)nc4)nc(N4CCOCC4)nc32)C1 [Example 269, (2R)-1-{(3R)-3-[4-(2-aminopyrimidin-5-yl)-2-(morpholin-4-yl)-5,6-dihydro-7H-pyrrolo[2,3-d]pyrimidin-7-yl]-3-methylpyrrolidin-1-yl}-2-hydroxypropan-1-one]	0.222	
CC(C)[C@H](N)C(=O)N1CC[C@](C)(N2CCc3c(-c4cnc(N)nc4)nc(N4CCOCC4)nc32)C1.Cl [Example 288, (2S)-2-amino-1-{(3S)-3-[4-(2-aminopyrimidin-5-yl)-2-(morpholin-4-yl)-5,6-dihydro-7H-pyrrolo[2,3-d]pyrimidin-7-yl]-3-methylpyrrolidin-1-yl}-3-methylbutan-1-one hydrochloride]	0.141	
CC(C)C(=O)N1CC[C@](C)(N2CCc3c(-c4cnc(N)nc4)nc(N4CCOCC4)nc32)C1 [Example 262, 1-{(3S)-3-[4-(2-aminopyrimidin-5-yl)-2-(morpholin-4-yl)-5,6-dihydro-7H-pyrrolo[2,3-d]pyrimidin-7-yl]-3-methylpyrrolidin-1-yl}-2-methylpropan-1-one]	<0.018	
C[C@@]1(N2CCc3c(-c4cnc(N)nc4)nc(N4CCOCC4)nc32)CCN(C(=O)CC#N)C1 [Example 266, 3-{(3R)-3-[4-(2-aminopyrimidin-5-yl)-2-(morpholin-4-yl)-5,6-dihydro-7H-pyrrolo[2,3-d]pyrimidin-7-yl]-3-methylpyrrolidin-1-yl}-3-oxopropanenitrile]	0.139	
C[C@H]1COCCN1c1nc(-c2cnc(N)nc2)c2c(n1)N([C@@]1(C)CNC[C@@H]1C)CC2.Cl [Example 468, 5-{7-[(3R,4S)-3,4-dimethylpyrrolidin-3-yl]-2-[(3S)-3-methylmorpholin-4-yl]-6,7-dihydro-5H-pyrrolo[2,3-d]pyrimidin-4-yl}pyrimidin-2-amine hydrochloride]	0.634	
C[C@H]1COCCN1c1nc(-c2cnc(N)nc2)c2c(n1)N([C@@]1(C)CCN(C(=O)CN(C)C)C1)CC2 [Example 483, 1-[(3S)-3-{4-(2-aminopyrimidin-5-yl)-2-[(3S)-3-methylmorpholin-4-yl]-5,6-dihydro-7H-pyrrolo[2,3-d]pyrimidin-7-yl}-3-methylpyrrolidin-1-yl]-2-(dimethylamino)ethanone]	0.049	
C[C@H]1COCCN1c1nc(-c2cnc(N)nc2)c2c(n1)N([C@@]1(C)CCN(C3CCNC3=O)C1)CC2 (single isomer, unassigned) [Example 515]	<0.081	
C[C@H]1COCCN1c1nc(-c2cnc(N)nc2)c2c(n1)N([C@@]13CNC[C@@H]1C3)CC2.Cl [Example 529, 5-{7-[(1R,5S)-3-azabicyclo[3.1.0]hex-1-yl]-2-[(3S)-3-methylmorpholin-4-yl]-6,7-dihydro-5H-pyrrolo[2,3-d]pyrimidin-4-yl}pyrimidin-2-amine hydrochloride]	0.595	
CC(C)(C)OC(=O)N1CC[C@H]1C(=O)N1CC[C@](C)(N2CCc3c(-c4cnc(N)nc4)nc(N4CCOCC4)nc32)C1 [Example 370, tert-butyl (2S)-2-({(3S)-3-[4-(2-aminopyrimidin-5-yl)-2-(morpholin-4-yl)-5,6-dihydro-7H-pyrrolo[2,3-d]pyrimidin-7-yl]-3-methylpyrrolidin-1-yl}carbonyl)azetidine-1-carboxylate]	0.184	
C[C@H]1COCCN1c1nc(-c2cnc(N)nc2)c2c(n1)N([C@H]1C[C@@H](NC(=O)OC(C)(C)C)C1)CC2 [Example 447, tert-butyl (cis-3-{4-(2-aminopyrimidin-5-yl)-2-[(3S)-3-methylmorpholin-4-yl]-5,6-dihydro-7H-pyrrolo[2,3-d]pyrimidin-7-yl}cyclobutyl)carbamate]	0.644	
CNS(=O)(=O)N1CC[C@H](N2CCc3c(-c4cnc(N)nc4)nc(N4CCOC[C@H]4C)nc32)C1 [Example 144]	3.251	
CC(C)(C)OC(=O)N1C[C@@H]2C[C@H]1[C@H]2N1CCc2c(-c3cnc(N)nc3)nc(N3CCOCC3)nc21 [Example 438, tert-butyl (1S,4S,5S)-5-[4-(2-aminopyrimidin-5-yl)-2-(morpholin-4-yl)-5,6-dihydro-7H-pyrrolo[2,3-d]pyrimidin-7-yl]-2-azabicyclo[2.1.1] hexane-2-carboxylate]		7.45
CC(C)(C)OC(=O)N1CC[C@H]1C(=O)N1CC[C@@](C)(N2CCc3c(-c4cnc(N)nc4)nc(N4CCOCC4)nc32)C1 [Example 357, tert-butyl (2S)-2-({(3R)-3-[4-(2-aminopyrimidin-5-yl)-2-(morpholin-4-yl)-5,6-dihydro-7H-pyrrolo[2,3-d]pyrimidin-7-yl]-3-methylpyrrolidin-1-yl}carbonyl)azetidine-1-carboxylate]	0.144	
C[C@H]1COCCN1c1nc(-c2cnc(N)nc2)c2c(n1)N(C1(C)CN(C(=O)OC(C)(C)C)C1)CC2 [Example 461, tert-butyl 3-{4-(2-aminopyrimidin-5-yl)-2-[(3S)-3-methylmorpholin-4-yl]-5,6-dihydro-7H-pyrrolo[2,3-d]pyrimidin-7-yl}-3-methylazetidine-1-carboxylate]	0.040	
C[C@H]1COCCN1c1nc(-c2cnc(N)nc2)c2c(n1)N([C@@]1(C)CCN(C)C1)CC2 [Example 513, 5-{7-[(3S)-1,3-dimethylpyrrolidin-3-yl]-2-[(3S)-3-methylmorpholin-4-yl]-6,7-dihydro-5H-pyrrolo[2,3-d]pyrimidin-4-yl}pyrimidin-2-amine]	0.418	
CC(C)(C)OC(=O)N1CCCC(C)(N2CCc3c(-c4cnc(N)nc4)nc(N4CCOCC4)nc32)C1 (racemic) [Example 434, tert-butyl 3-[4-(2-aminopyrimidin-5-yl)-2-(morpholin-4-yl)-5,6-dihydro-7H-pyrrolo[2,3-d]pyrimidin-7-yl]-3-methylpiperidine-1-carboxylate]	0.220	
C[C@@H](O)COC(=O)N1CC(N2CCc3c(-c4cnc(N)nc4)nc(N4CCOC[C@@H]4C)nc32)C1 [Example 186]	0.274	
COCCCS(=O)(=O)N1CC(N2CCc3c(-c4cnc(N)nc4)nc(N4CCOCC4)nc32)C1 [Example 161]	0.202	
C[C@]1(N2CCc3c(-c4cnc(N)nc4)nc(N4CCOCC4)nc32)CCN(C(=O)OCC2CNC2)C1.Cl [Example 413, azetidin-3-ylmethyl (3S)-3-[4-(2-aminopyrimidin-5-yl)-2-(morpholin-4-yl)-5,6-dihydro-7H-pyrrolo[2,3-d]pyrimidin-7-yl]-3-methylpyrrolidine-1-carboxylate hydrochloride]	<0.018	
C[C@@H]1CNC[C@@]1(C)N1CCc2c(-c3cnc(N)nc3)nc(N3CCOC[C@@H]3C)nc21.Cl [Example 467, 5-{7-[(3S,4R)-3,4-dimethylpyrrolidin-3-yl]-2-[(3S)-3-methylmorpholin-4-yl]-6,7-dihydro-5H-pyrrolo[2,3-d]pyrimidin-4-yl}pyrimidin-2-amine hydrochloride]	0.106	
C[C@]1(N2CCc3c(-c4cnc(N)nc4)nc(N4CCOCC4)nc32)CCN(C2CCNC2=O)C1 (stereo partly drawn) [Example 6, (3S)-3-[4-(2-aminopyrimidin-5-yl)-2-(morpholin-4-yl)-5,6-dihydro-7H-pyrrolo[2,3-d]pyrimidin-7-yl]-3-methyl-1,3′-bipyrrolidin-2′-one]		0.096
C[C@H]1COCCN1c1nc(-c2cnc(N)nc2)c2c(n1)N(C1(C)CN(C(=O)C(C)(C)O)C1)CC2 [Example 455, 1-(3-{4-(2-aminopyrimidin-5-yl)-2-[(3S)-3-methylmorpholin-4-yl]-5,6-dihydro-7H-pyrrolo[2,3-d]pyrimidin-7-yl}-3-methylazetidin-1-yl)-2-hydroxy-2-methylpropan-1-one]	0.187	
C[C@@H]1COCCN1c1nc(-c2cnc(N)nc2)c2c(n1)N([C@@]1(C)CCN(C(=O)OC(C)(C)C)C1)CC2 [Example 229]	0.055	
C[C@@]1(N2CCc3c(-c4cnc(N)nc4)nc(N4CCOCC4)nc32)CCN(C(=O)N2CCC2)C1 [Example 361, {(3R)-3-[4-(2-aminopyrimidin-5-yl)-2-(morpholin-4-yl)-5,6-dihydro-7H-pyrrolo[2,3-d]pyrimidin-7-yl]-3-methylpyrrolidin-1-yl}(azetidin-1-yl)methanone]	0.078	
CC(C)(C)NC(=O)N1CC[C@@](C)(N2CCc3c(-c4cnc(N)nc4)nc(N4CCOCC4)nc32)C1 [Example 396, (3R)-3-[4-(2-aminopyrimidin-5-yl)-2-(morpholin-4-yl)-5,6-dihydro-7H-pyrrolo[2,3-d]pyrimidin-7-yl]-N-tert-butyl-3-methylpyrrolidine-1-carboxamide]	0.121	
C[C@H]1COCCN1c1nc(-c2cnc(N)nc2)c2c(n1)N(C1CN(S(=O)(=O)c3cnn(C)c3)C1)CC2 [Example 160]	0.221	
CC(C)C(=O)N1CC(N2CCc3c(-c4cnc(N)nc4)nc(N4CCOC[C@@H]4C)nc32)C1 [Example 453, 1-(3-{4-(2-aminopyrimidin-5-yl)-2-[(3S)-3-methylmorpholin-4-yl]-5,6-dihydro-7H-pyrrolo[2,3-d]pyrimidin-7-yl}azetidin-1-yl)-2-methylpropan-1-one]	0.973	
CC(C)(N)COC(=O)N1CC[C@](C)(N2CCc3c(-c4cnc(N)nc4)nc(N4CCOCC4)nc32)C1.Cl [Example 412, 2-amino-2-methylpropyl (3S)-3-[4-(2-aminopyrimidin-5-yl)-2-(morpholin-4-yl)-5,6-dihydro-7H-pyrrolo[2,3-d]pyrimidin-7-yl]-3-methylpyrrolidine-1-carboxylate hydrochloride]	<0.018	
CC(C)(C)OC(=O)N1CC[C@](C)(N2CCc3c(-c4cnc(N)nc4)nc(N4CCOCC4)nc32)C1 [Example 194]	<0.018	
